Earlier results, collected in patent US20210228671A1, “EXTRACT OF VEGETATION WATERS FOR USE IN THE TREATMENT AND/OR IN THE PREVENTION OF PROSTATE CANCER” (FATTORIA LA VIALLA DI GIANNI, ANTONIO E BANDINO LO FRANCO - …, priority 2018, published 2021).

Conditions: high concentrations, up to 250-500 mg/kg/day

## OCCc1ccc(O)c(O)c1 [hydroxytyrosol]
  toxic effect of in vivo administration: does not exert any toxic effect
